pIC50: −log10 of the molar value.

Series [1] has as its target T1, purified recombinant Cdc25-C enzyme (MBP-Cdc25C protein) (Homo sapiens, UniProt P30307).
T1 construct: made in house
T1 sequence (P30307 1-473): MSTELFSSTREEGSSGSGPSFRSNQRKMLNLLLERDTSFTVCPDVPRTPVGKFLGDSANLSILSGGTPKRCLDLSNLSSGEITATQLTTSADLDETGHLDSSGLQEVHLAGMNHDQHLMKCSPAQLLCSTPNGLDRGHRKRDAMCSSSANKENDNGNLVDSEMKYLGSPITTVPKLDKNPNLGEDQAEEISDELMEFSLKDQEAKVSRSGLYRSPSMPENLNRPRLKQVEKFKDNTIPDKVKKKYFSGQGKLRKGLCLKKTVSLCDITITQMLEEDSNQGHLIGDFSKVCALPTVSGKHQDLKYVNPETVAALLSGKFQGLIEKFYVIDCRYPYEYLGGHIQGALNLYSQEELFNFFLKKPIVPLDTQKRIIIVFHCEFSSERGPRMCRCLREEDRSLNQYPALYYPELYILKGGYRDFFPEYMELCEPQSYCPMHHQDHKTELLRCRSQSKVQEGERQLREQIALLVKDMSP
Put plainly: Phosphatase activity of the purified recombinant Cdc25C enzyme (OMFP dephosphorylation, fluorescence). Type of series: biochemical. Particulars: OMFP 500 μM, 4 hours at 30° C. As to the method:
The phosphatase activity of the MBP-Cdc25C protein is evaluated through its dephosphorylation of 3-O-methylfluorescein-phosphate (OMFP) to form 3-O-methylfluorescein (OMF), determining the fluorescence of the reaction product at 475 nm. This assay can be used to identify inhibitors of the recombinant Cdc25 enzyme. The preparation of the MBP-Cdc25C fusion protein is described in patent application PCT WO 01/44467.
The reaction is performed in 384-well plates in a final volume of 50 μl. The MBP-Cdc25C protein (prepared as described hereinabove) is stored in the following elution buffer: 20 mM Tris-HCl pH 7.4; 250 mM NaCl; 1 mM EDTA; 1 mM dithiothreitol (DTT); 10 mM maltose. It is diluted to a concentration of 60 μM in the following reaction buffer: 50 mM Tris-HCl pH 8.2; 50 mM NaCl; 1 mM DTT; 20% glycerol. The background noise is determined using with the buffer without addition of the enzyme. The products are tested at decreasing concentrations from 40 μM. The reaction is initiated by the addition of a solution OMFP to a final concentration of 500 μM (prepared immediately before use from a 12.5 mM stock solution in 100% DMSO (Sigma #M2629)). After 4 hours at 30° C. in a disposable 384-well plate, the fluorescence measured at OD 475 nm is read on a Victor^2 plate reader (EGG-Wallac). The concentration that produces 50% inhibition of the enzyme reaction is calculated from three independent experiments. Only the values that fall within the linear part of the sigmoid curve are used for the linear regression analysis.

Series [2] relates to DU145 (human prostate cancer cells). Put plainly: Anti-proliferative activity on DU-145 cell line (WST1 colorimetric test). Type of series: cell-based. Particulars: DU-145, 96 h, 96 hours treatment, read-out: IC50 on the proliferation of the DU-145 cell line. The method, then: By way of an example, the effect of treating two human cell lines Mia-Paca2 and DU145 with the compounds of the examples described hereinbefore will be studied. The cell lines DU145 (human prostate cancer cells) and Mia-PaCa2 (human pancreas cancer cells) were obtained from the American Tissue Culture Collection (Rockville, Md., USA). A 96-well plate was inoculated on day 0 with cells placed in 80 μl of Dulbecco's modified Eagle's medium (Gibco-Brl, Cergy-Pontoise, France) with 10% heat-inactivated foetal calf serum (Gibco-Brl, Cergy-Pontoise, France), 50000 units/1 of penicillin and 50 mg/l of streptomycin (Gibco-Brl, Cergy-Pontoise, France), and 2 mM of glutamine (Gibco-Brl, Cergy-Pontoise, France). The cells were treated on day 1 with increasing concentrations of each test compound up to 10 μM for 96 hours. At the end of this period, cell proliferation is quantified by means of a colorimetric test based on cleavage of the tetrazolium salt WST1 by the mitochondrial dehydrogenases in the viable cells, resulting in formation of formazan (Boehringer Mannheim, Meylan, France). These tests are performed in duplicate with 8 determinations per concentration tested. For each compound to be tested, the values within the linear part of the sigmoid curve were subjected to linear regression analysis and used to estimate the IC50 inhibitory concentration. The products are solubilised in dimethylsulfoxide (DMSO) at a concentration of 10^−2 M and used in culture with a final DMSO concentration of 0.1%.

Take `CN(CCNC(=O)Nc1cccs1)CCNc1cc(N2CCCC2)nc(N2CCCC2)n1` [Example 10, N-{2-[{2-[(2,6-dipyrrolidin-1-ylpyrimidin-4-yl)amino]ethyl}(methyl)amino]ethyl}-N′-2-thienylurea]: the melting point was 133 to 135 °C. For the same molecule, in series [1], the pIC50 was no less than 6.00. The pIC50 in series [2] was no less than 5.30.
For `CN(CCNC(=S)Nc1ccc(OC(F)(F)F)cc1)CCNc1cc(N2CCCC2)nc(N2CCCC2)n1` [Example 23, N-{2-[{2-[(2,6-dipyrrolidin-1-ylpyrimidin-4-yl)amino]ethyl}(methyl)amino]ethyl}-N′-[4-(trifluoromethoxy)phenyl]thiourea] the same measures were 118 to 120 °C, no less than 5.30 and no less than 5.30.
For `CN(CCNC(=S)Nc1ccc(F)cc1)CCNc1cc(N2CCCC2)nc(N2CCCC2)n1` [Example 24, N-{2-[{2-[(2,6-dipyrrolidin-1-ylpyrimidin-4-yl)amino]ethyl}(methyl)amino]ethyl}-N′-(4-fluorophenyl)thiourea] the same measures were 115 to 117 °C, no less than 5.30 and no less than 5.30.
`CN(CCNC(=S)Nc1ccc(C(F)(F)F)cc1)CCNc1cc(N2CCCC2)nc(N2CCCC2)n1` [Example 25, N-{2-[{2-[(2,6-dipyrrolidin-1-ylpyrimidin-4-yl)amino]ethyl}(methyl)amino]ethyl}-N′-[4-(trifluoromethyl)phenyl]thiourea] showed a melting point of 87 to 89 °C. Also, in series [2], the pIC50 is no less than 5.30.
`CN(CCNC(=S)Nc1ccc(Oc2ccccc2)nc1)CCNc1cc(N2CCCC2)nc(N2CCCC2)n1` [Example 30, N-{2-[{2-[(2,6-dipyrrolidin-1-ylpyrimidin-4-yl)amino]ethyl}(methyl)amino]ethyl}-N′-(6-phenoxypyridin-3-yl)thiourea] showed a melting point of 104 to 106 °C. In addition, the pIC50 in series [1] was no less than 5.30. For the same molecule, the pIC50 in series [2] was no less than 5.30.
Regarding `CN(CCNC(=S)Nc1ccc(-c2cnco2)cc1)CCNc1cc(N2CCCC2)nc(N2CCCC2)n1` [Example 33, N-{2-[{2-[(2,6-dipyrrolidin-1-ylpyrimidin-4-yl)amino]ethyl}(methyl)amino]ethyl}-N′-[4-(1,3-oxazol-5-yl)phenyl]thiourea], the melting point was in the range of 104 to 106 °C. For the same molecule, in series [1], the pIC50 was no less than 5.30. Also, the pIC50 in series [2] was no less than 5.30.
Turning to `COc1ccc(NC(=S)NCCN(C)CCNc2cc(N3CCCC3)nc(N3CCCC3)n2)cc1` [Example 35, N-{2-[{2-[(2,6-dipyrrolidin-1-ylpyrimidin-4-yl)amino]ethyl}(methyl)amino]ethyl}-N′-(4-methoxyphenyl)thiourea], the melting point fell in the range of 127 to 129 °C. Moreover, in series [1], the pIC50 is no less than 5.30. Besides, the pIC50 in series [2] was no less than 5.30.
On to `CN(CCNC(=S)Nc1ccc(Oc2ccccc2)cc1)CCNc1cc(N2CCCC2)nc(N2CCCC2)n1` [Example 36, N-{2-[{2-[(2,6-dipyrrolidin-1-ylpyrimidin-4-yl)amino]ethyl}(methyl)amino]ethyl}-N′-(4-phenoxyphenyl)thiourea], for which the melting point lay in the range of 79 to 81 °C. The pIC50 in series [1] is no less than 5.30. Further, in series [2], the pIC50 is no less than 5.30.
Molecule `CN(CCNC(=S)Nc1cccc2ccccc12)CCNc1cc(N2CCCC2)nc(N2CCCC2)n1` [Example 37, N-{2-[{2-[(2,6-dipyrrolidin-1-ylpyrimidin-4-yl)amino]ethyl}(methyl)amino]ethyl}-N′-1-naphthylthiourea] had a melting point of 87 to 89 °C. In addition, the pIC50 in series [1] was no less than 5.30. The pIC50 in series [2] was no less than 5.30.
`CN(CCNC(=S)Nc1ccc(C(C)(C)C)cc1)CCNc1cc(N2CCCC2)nc(N2CCCC2)n1` [Example 44, N-(4-tert-butylphenyl)-N′-{2-[{2-[(2,6-dipyrrolidin-1-ylpyrimidin-4-yl)amino]ethyl}(methyl)amino]ethyl}thiourea]: the melting point was 192 to 194 °C. Further, the pIC50 in series [1] is no less than 6.00. Besides, in series [2], the pIC50 is no less than 5.30.

The values above are taken from patent US20100137275A1 (IPSEN PHARMA S.A.S., priority 2007, published 2010).
